In article PMC6406907, “A H2AX–CARP-1 Interaction Regulates Apoptosis Signaling Following DNA Damage” (Cancers, 2019):

System: CARP-1 interaction with γH2AX
Test: Co-immunoprecipitation of myc-His-CARP-1 with γH2AX
Assay type: cell-based, human
Conditions: for interaction of wild-type CARP-1 with γH2AX: MDA-MB-468 cells expressing myc-His-tagged CARP-1 (WT), IP/WB; for interaction of CARP-1 (Δ600–650) with γH2AX: in-frame deletion of CARP-1 amino acids 600–650, IP/WB
Description: Logarithmically growing cells were either untreated or treated with different agents for various time periods. The cells were lysed to prepare protein extracts. IP was carried out by incubating approximately 1 mg of the protein lysate with appropriate antibodies. The immunoprecipitates were then analyzed by SDS-PAGE, followed by WB with respective, interacting protein. For Gst-pulldown, Gst-H2AX or various His-TAT-HA-tagged CARP-1 peptides were generated in Escherichia coli (E. coli) BL21 cells essentially as described by us previously. Briefly, the competent E. coli BL-21 (DE3) pLysS cells were transformed separately with various recombinant pGEX-4T-1 or pTAT-HA constructs. The transformed cells were then subjected to selection by combined presence of ampicillin and chloramphenicol; various isolates for each transformation were obtained and bacterial lysates were characterized for expression of fusion peptides. Cells from each isolate were grown in 4 mL of LB medium containing ampicillin only until the optical density (OD)600 reached 0.4–0.8. Expression of fusion peptides was induced over 2–4 h incubation periods after Isopropyl β-D-1-thiogalactopyranoside (IPTG) addition. The cells were harvested, and pellets were stored at −80 °C overnight. The cell pellets were then lysed in 100–400 μL of bacterial protein extraction reagent (BPER) buffer (Thermo Scientific, Waltham, MA, USA, Cat# 78243) containing 2 μL/mL of 10 units/μL DNAse I (Boehringer Mannheim, Fremont, CA, USA, Cat # 776–785), and supernatant checked for expression of respective fusion peptides by WB. Following confirmation of expression, 5–20 μL of lysate expressing Gst fusion protein was first incubated with 20 μL of precleared glutathione sepharose in a final volume of 100 μL at 4 °C for 2 h with constant rotation. The sepharose beads were spun at 800× g for 2 min, and the pellet was washed 2–4 times with 100–200 μL of RIPA buffer (20 mM Tris-HCl (pH 7.5), 150 mM NaCl, 1 mM Na2EDTA, 1 mM EGTA, 1% NP-40, 1% sodium deoxycholate, 2.5 mM sodium pyrophosphate, 1 mM β-glycerophosphate, 1 mM Na3VO4, 1 µg/mL leupeptin) with 0.5 M NaCl. The beads were spun again as above, and mixed with 5–20 μL of E. coli lysate expressing His-TAT-HA CARP-1 peptides. The reactions were incubated further at 4 °C for 2 h with constant rotation. The peptide-bound sepharose beads were pelleted and washed with 100–200 μL of RIPA buffer with 0.1 M NaCl for 2–4 washes. In some cases, additional washes with 0.05 M NaCl buffer were carried out. After the final wash, the sepharose–protein complexes were spun, and then re-suspended in SDS loading buffer for electrophoresis on 12–15% SDS PAGE, followed by WB with appropriate antibodies.
We next carried out mutagenesis-based studies to map the interacting epitopes of CARP-1 and H2AX proteins. […]

Row | SMILES | interaction of wild-type CARP-1 with γH2AX | interaction of CARP-1 (Δ600–650) with γH2AX
1 | COc1cccc2c1C(=O)c1c(O)c3c(c(O)c1C2=O)C[C@@](O)(C(=O)CO)C[C@@H]3O[C@H]1C[C@H](N)[C@H](O)[C@H](C)O1 [Adriamycin, doxorubicin, reference compound] | robust interaction of wild-type CARP-1 with γH2AX | abrogated CARP-1 interaction with γH2AX
2 | O=C1N(Cc2ccccc2Cl)c2ccccc2C12NN=C(c1cccc(Cl)c1)S2 (stereo not shown) [CFM-4.16] | robust interaction of wild-type CARP-1 with γH2AX | abrogated CARP-1 interaction with γH2AX
